Test results: US12054660B2, “Compound, composition, cured substance, optically anisotropic body, optical element, and light guide element” (FUJIFILM Corporation, priority 2021, dated 2024)

Columns and labels:
Type in all cases: physicochemical
[1] = Evaluation of liquid crystallinity (hot stage, polarization microscope); set-up: key: A case of having liquid crystallinity was evaluated as A; a case of having no liquid crystallinity was evaluated as B; conditions: heated on a hot stage
Source text: As a specific observation method, optical anisotropy and fluidity derived from the liquid crystal phase can be checked by carrying out an observation under a polarization microscope while heating or lowering the temperature of the compound with a hot stage or the like.
The respective compounds of Examples and Comparative Examples (the compounds A-1, A-3 to A-20, and the compounds RA-1 and RA-2) were heated on a hot stage and observed with a polarization microscope, and the phase transition temperature was measured to evaluate the presence or absence of liquid crystallinity. A case of having liquid crystallinity was evaluated as A, and a case of having no liquid crystallinity was evaluated as B. The results are shown in Table 1.

[2] = Measurement of Δn (refractive index anisotropy), wedge-shaped liquid crystal cell; conditions: 550 nm, 30° C. or lower limit temperature of nematic phase+0 to 10° C.; some extrapolated from 1/2 mixture with L-1-1
Method: The Δn of each of the compounds of Examples and Comparative Examples (the compounds A-1, A-3 to A-20, and the compounds RA-1 and RA-2), which are the compounds to be measured, was measured by a method using a wedge-shaped liquid crystal cell described on page 202 in the Liquid crystal handbook (edited by the liquid crystal handbook editorial board, published by Maruzen Co., Ltd., 2000). An was defined as a measured value at a wavelength of 550 nm at 30° C. or the lower limit temperature of the nematic phase+0° C. to 10° C. In a case of a compound which is liable to crystallize or a compound having no liquid crystallinity, evaluation was carried out using a mixture thereof with the other liquid crystal compound, and Δn was estimated from the extrapolated value of the measured value thereof. The following L-1-1 was used as the other liquid crystal compound. As the above mixture, a mixture obtained by mixing at a ratio of the compound to be measured/the L-1-1=1/2 (in terms of mass ratio) was used.
A case where Δn was 0.35 or more was evaluated as A, a case where Δn was 0.32 or more and less than 0.35 was evaluated as B, a case where Δn was 0.30 or more and less than 0.32 was evaluated as C, and a case where Δn was less than 0.30 was evaluated as D. The results are shown in Table 1.

[3] = Evaluation of solubility in methyl ethyl ketone; conditions: precipitation concentration in methyl ethyl ketone at room temperature (25° C.)
Method: The solubility of each of the compounds of Examples and Comparative Examples (the compounds A-1, A-3 to A-20, and the compounds RA-1 and RA-2) in methyl ethyl ketone was evaluated. A solution in which the compound was ultrasonically dissolved or dissolved by heating was produced.

[4] = Evaluation of durability (moisture-heat resistance test) of optically anisotropic layer; conditions: rate of change in Re of layer (25 parts compound/75 parts L-1) after 136 hours at 100° C., 95% RH
Method: (§1) As shown below, the durability of the optically anisotropic layer produced using the composition containing each of the compounds A-1 and A-3 to A-20, and the compounds RA-1 and RA-2 was evaluated.
(§2) A coating composition having the following composition was prepared and applied by spin coating onto a rubbing-treated glass attached with an alignment film.
(§3) The polymerizable liquid crystal compound L-1 is a mixture obtained by mixing at a ratio of the following L-1-1/L-1-2/L-1-3=84/14/2 (in terms of mass ratio).
(§4) Re is an in-plane retardation. Rate of change in Re (%)=[100×{|(Re after test)−(Re before test)|}/(Re before test)]
(§5) Re was measured with Axoscan manufactured by Axometrics, Inc. at a wavelength of 550 nm, and the measurement temperature was set to room temperature.
The produced optically anisotropic layer was allowed to be left for 136 hours at 100° C. and a relative humidity of 95% RH, whereby a moisture-heat resistance test was carried out. The rate of change in Re before and after the durability test was evaluated, the durability in a case where the rate of change in Re was less than 10% was evaluated as A, and the durability in a case where the rate of change in Re was 10% or more was evaluated as B. The smaller the rate of change in Re, the more excellent the durability.

[5] = Evaluation of light resistance of optically anisotropic layer; conditions: rate of change in Re of layer (25 parts compound/75 parts L-1) after xenon irradiation 50 hours, 63° C., 50% RH, oxygen-blocking
Method: as §1, §2, §3
The produced optically anisotropic layers for light resistance/durability tests were irradiated with light using a Super Xenon Weather Meter SX75 manufactured by Suga Test Instruments Co., Ltd. Using KU-1000100 manufactured by King Seisakusho Co., Ltd. as an ultraviolet ray cut filter, irradiation with 5 million 1× of light was carried out for 50 hours under the oxygen-blocking conditions to carry out a light resistance test. The temperature of the specimen to be tested (the temperature inside the test device) was set to 63° C. The relative humidity in the test device was 50% RH.
The Re of the optically anisotropic layer before and after the light resistance test was measured, the light resistance in a case where the rate of change in Re described below was less than 10% was evaluated as A, and the light resistance in a case where the rate of change in Re was 10% or more was evaluated as B. The smaller the rate of change in Re, the more excellent the light resistance.
as §4, §5

Liquid crystallinity [1] | SMILES | Δn [2] | Solubility [3] | Durability [4] | Light resistance [5]
A | CC(=O)OCCSc1ccc(C#Cc2ccc(OCc3ccc(C#Cc4ccc(COc5ccc(C#Cc6ccc(SCCOC(C)=O)cc6)cc5C)cc4)cc3)c(C)c2)cc1 [Compound A-15] | A (A case where Δn was 0.35 or more was evaluated as A) | B (the solubility in a case where the precipitation concentration was less than 10% by mass was evaluated as B) | B (the durability in a case where the rate of change in Re was 10% or more was evaluated as B) | A (the light resistance in a case where the rate of change in Re described below was less than 10% was evaluated as A)
A | C=CC(=O)OCCSc1ccc(C#Cc2ccc(C(=O)Oc3ccc(C#Cc4ccc(SCCOC(=O)C=C)cc4)cc3C(=O)OC)cc2)cc1 [Compound A-4] | A (A case where Δn was 0.35 or more was evaluated as A) | A (the solubility in a case where the precipitation concentration was 10% by mass or more was evaluated as A) | A (the durability in a case where the rate of change in Re was less than 10% was evaluated as A) | B (the light resistance in a case where the rate of change in Re was 10% or more was evaluated as B)
B | C=CC(=O)OCCOc1ccc(C#Cc2ccc(SCCSc3ccc(C#Cc4ccc(OCCOC(=O)C=C)c(C)c4)cc3)cc2)cc1C [Compound A-17] | A (A case where Δn was 0.35 or more was evaluated as A) | A (the solubility in a case where the precipitation concentration was 10% by mass or more was evaluated as A) | A (the durability in a case where the rate of change in Re was less than 10% was evaluated as A) | A (the light resistance in a case where the rate of change in Re described below was less than 10% was evaluated as A)
B | C=CC(=O)OCCSc1ccc(C#Cc2ccc(SCc3ccc(C#Cc4ccc(SCCOC(=O)C=C)cc4)c(OC)c3)cc2)cc1 [Compound A-5] | A (A case where Δn was 0.35 or more was evaluated as A) | A (the solubility in a case where the precipitation concentration was 10% by mass or more was evaluated as A) | A (the durability in a case where the rate of change in Re was less than 10% was evaluated as A) | A (the light resistance in a case where the rate of change in Re described below was less than 10% was evaluated as A)
B | CC(=O)OCCSc1ccc(C#Cc2ccc(CSc3ccc(C#Cc4ccc(CCOC(C)=O)cc4)cc3)cc2C)cc1 [Compound A-1] | A (A case where Δn was 0.35 or more was evaluated as A) | A (the solubility in a case where the precipitation concentration was 10% by mass or more was evaluated as A) | B (the durability in a case where the rate of change in Re was 10% or more was evaluated as B) | A (the light resistance in a case where the rate of change in Re described below was less than 10% was evaluated as A)
A | C=CC(=O)OCCSc1ccc(C#Cc2ccc(COc3ccc(C#Cc4ccc(SCCOC(=O)C=C)cc4)cc3C(=O)OC)cc2)cc1 [Compound A-3] | A (A case where Δn was 0.35 or more was evaluated as A) | A (the solubility in a case where the precipitation concentration was 10% by mass or more was evaluated as A) | A (the durability in a case where the rate of change in Re was less than 10% was evaluated as A) | A (the light resistance in a case where the rate of change in Re described below was less than 10% was evaluated as A)
A | C=CC(=O)OCCSc1ccc(C#Cc2ccc(OCCOc3ccc(C#Cc4ccc(SCCOC(=O)C=C)cc4)cc3C(=O)OC)c(C(=O)OC)c2)cc1 [Compound A-18] | A (A case where Δn was 0.35 or more was evaluated as A) | A (the solubility in a case where the precipitation concentration was 10% by mass or more was evaluated as A) | A (the durability in a case where the rate of change in Re was less than 10% was evaluated as A) | A (the light resistance in a case where the rate of change in Re described below was less than 10% was evaluated as A)
A | C=CC(=O)OCCSc1ccc(C#Cc2ccc(COc3ccc(OCc4ccc(C#Cc5ccc(SCCOC(=O)C=C)cc5)cc4)c(C(=O)OC)c3)cc2)cc1 [Compound A-14] | A (A case where Δn was 0.35 or more was evaluated as A) | B (the solubility in a case where the precipitation concentration was less than 10% by mass was evaluated as B) | A (the durability in a case where the rate of change in Re was less than 10% was evaluated as A) | A (the light resistance in a case where the rate of change in Re described below was less than 10% was evaluated as A)
A | C=CC(=O)OCCSc1ccc(C#Cc2ccc(OCc3ccc(C#Cc4ccc(SCCOC(=O)C=C)cc4)s3)c(C(=O)OC)c2)cc1 [Compound A-16] | A (A case where Δn was 0.35 or more was evaluated as A) | A (the solubility in a case where the precipitation concentration was 10% by mass or more was evaluated as A) | A (the durability in a case where the rate of change in Re was less than 10% was evaluated as A) | B (the light resistance in a case where the rate of change in Re was 10% or more was evaluated as B)
A | CC(=O)OCCSc1ccc(C#Cc2ccc(COc3ccc(C#Cc4ccc(CCOC(C)=O)cc4)cc3)cc2C)cc1 [Compound A-13] | B (a case where Δn was 0.32 or more and less than 0.35 was evaluated as B) | A (the solubility in a case where the precipitation concentration was 10% by mass or more was evaluated as A) | B (the durability in a case where the rate of change in Re was 10% or more was evaluated as B) | A (the light resistance in a case where the rate of change in Re described below was less than 10% was evaluated as A)
A | CC(=O)OCCCCCCCCCCOc1ccc(C#Cc2ccc(OC(=O)c3ccc(C#Cc4ccc(OCCCCCCCCCCOC(C)=O)c(F)c4)cc3)cc2)cc1F [RA-1, reference compound] | D (a case where Δn was less than 0.30 was evaluated as D) | B (the solubility in a case where the precipitation concentration was less than 10% by mass was evaluated as B) | A (the durability in a case where the rate of change in Re was less than 10% was evaluated as A) | B (the light resistance in a case where the rate of change in Re was 10% or more was evaluated as B)
